Assay results published in ChEMBL document CHEMBL3352818, “Seizure prevention by the naturally occurring phenols, carvacrol and thymol in a partial seizure-psychomotor model” (Bioorg Med Chem Lett, 2014).
Activity calls are given as the source filed them. The rule behind the calls is not given here.

Assays:
[1] = Protective index, ratio of TD50 for CF1 albino mouse neurotoxicity to ED50 for protection against 6 Hz electroshock-induced seizure in CF1 albino mouse; assay type: toxicity, organism-based; conditions: in vivo, read-out: Ratio TD50/ED50
[2] = tested on: Mus musculus; assay: Anticonvulsant activity against ip dosed CF1 albino mouse seizure model after 4 hrs by 6 Hz psychomotor seizure test; assay type: functional
[3] = tested on: Mus musculus; assay: Anticonvulsant activity against CF1 albino mouse seizure model assessed as protection at 100 mg/kg, ip after 0.25 hrs by 6 Hz psychomotor seizure test; assay type: functional, organism-based; design: dose 100 mg/kg
[4] = tested on: Mus musculus; assay: Neurotoxicity in CF1 albino mouse seizure model at 100 mg/kg, ip after 0.25 hrs by rototod test; assay type: toxicity, organism-based; design: dose 100 mg/kg, route intraperitoneal; conditions: in vivo
[5] = tested on: Mus musculus; assay: Anticonvulsant activity in CF1 albino mouse assessed as protection against pentylenetetrazole-induced seizure at 100 mg/kg, ip after 2 hrs by scMET test; assay type: functional, organism-based; design: dose 100 mg/kg
[6] = tested on: Mus musculus; assay: Anticonvulsant activity against CF1 albino mouse seizure model assessed as protection at 100 mg/kg, ip after 0.5 hrs by 6 Hz psychomotor seizure test; assay type: functional, organism-based; design: dose 100 mg/kg
[7] = tested on: Mus musculus; assay: Anticonvulsant activity in CF1 albino mouse assessed as protection against pentylenetetrazole-induced seizure at 100 mg/kg, ip after 0.25 hrs by scMET test; assay type: functional, organism-based; design: dose 100 mg/kg
[8] = tested on: Mus musculus; assay: Anticonvulsant activity against CF1 albino mouse seizure model assessed as time to peak effect at 100 mg/kg, ip by 6 Hz psychomotor seizure test; assay type: functional; conditions: route intraperitoneal
[9] = tested on: Mus musculus; assay: Neurotoxicity in CF1 albino mouse seizure model at 100 mg/kg, ip after 4 hrs by rototod test; assay type: toxicity, organism-based; design: dose 100 mg/kg, route intraperitoneal; conditions: in vivo
[10] = tested on: Mus musculus; assay: Neurotoxicity in CF1 albino mouse seizure model at 100 mg/kg, ip after 1 hrs by rototod test; assay type: toxicity, organism-based; design: dose 100 mg/kg, route intraperitoneal; conditions: in vivo
[11] = tested on: Mus musculus; assay: Anticonvulsant activity in CF1 albino mouse assessed as protection against Li-pilocarpine-induced seizure at 65 mg/kg, ip; assay type: functional, organism-based; design: dose 65 mg/kg
[12] = tested on: Mus musculus; assay: Anticonvulsant activity in CF1 albino mouse assessed as protection against pentylenetetrazole-induced seizure at 100 mg/kg, ip after 0.5 hrs by scMET test; assay type: functional, organism-based; design: dose 100 mg/kg
[13] = tested on: Mus musculus; assay: Neurotoxicity in CF1 albino mouse seizure model at 100 mg/kg, ip after 2 hrs by rototod test; assay type: toxicity, organism-based; design: dose 100 mg/kg, route intraperitoneal; conditions: in vivo
[14] = tested on: Mus musculus; assay: Neurotoxicity in CF1 albino mouse seizure model assessed as time to peak toxic effect at 100 mg/kg, ip after 4 hr by rototod test; assay type: toxicity, organism-based; design: dose 100 mg/kg, route intraperitoneal; conditions: in vivo
[15] = tested on: Mus musculus; assay: Anticonvulsant activity in CF1 albino mouse assessed as protection against maximal electroshock-induced seizures at 100 mg/kg, ip after 2 hrs; assay type: functional, organism-based; design: dose 100 mg/kg
[16] = tested on: Mus musculus; assay: Anticonvulsant activity in CF1 albino mouse assessed as protection against maximal electroshock-induced seizures at 100 mg/kg, ip after 0.5 hrs; assay type: functional, organism-based; design: dose 100 mg/kg
[17] = tested on: Mus musculus; assay: Anticonvulsant activity in CF1 albino mouse assessed as protection against maximal electroshock-induced seizures at 100 mg/kg, ip after 4 hrs; assay type: functional
[18] = tested on: Mus musculus; assay: Anticonvulsant activity in CF1 albino mouse assessed as protection against pentylenetetrazole-induced seizure at 200 mg/kg, ip after 4 hrs by scMET test; assay type: functional; conditions: route intraperitoneal
[19] = Neurotoxicity in ip dosed CF1 albino mouse seizure model after 4 hr by rototod test; assay type: toxicity, organism-based; conditions: in vivo
[20] = tested on: Mus musculus; assay: Neurotoxicity in CF1 albino mouse seizure model at 100 mg/kg, ip after 0.5 hrs by rototod test; assay type: toxicity, organism-based; design: dose 100 mg/kg, route intraperitoneal; conditions: in vivo
[21] = tested on: Mus musculus; assay: Anticonvulsant activity in CF1 albino mouse assessed as protection against maximal electroshock-induced seizures at 100 mg/kg, ip after 0.25 hrs; assay type: functional, organism-based; design: dose 100 mg/kg
[22] = tested on: Mus musculus; assay: Anticonvulsant activity in CF1 albino mouse assessed as protection against maximal electroshock-induced seizures at 100 mg/kg, ip after 1 hrs; assay type: functional, organism-based; design: dose 100 mg/kg
[23] = tested on: Mus musculus; assay: Anticonvulsant activity in CF1 albino mouse assessed as protection against pentylenetetrazole-induced seizure at 100 mg/kg, ip after 4 hrs by scMET test; assay type: functional, organism-based; design: dose 100 mg/kg
[24] = tested on: Mus musculus; assay: Anticonvulsant activity in CF1 albino mouse assessed as protection against pentylenetetrazole-induced seizure at 100 mg/kg, ip after 1 hrs by scMET test; assay type: functional, organism-based; design: dose 100 mg/kg
[25] = tested on: Mus musculus; assay: Anticonvulsant activity against CF1 albino mouse seizure model assessed as protection at 100 mg/kg, ip after 1 hrs by 6 Hz psychomotor seizure test; assay type: functional, organism-based; design: dose 100 mg/kg
[26] = tested on: Mus musculus; assay: Anticonvulsant activity against CF1 albino mouse seizure model assessed as protection at 100 mg/kg, ip after 4 hrs by 6 Hz psychomotor seizure test; assay type: functional, organism-based; design: dose 100 mg/kg
[27] = tested on: Mus musculus; assay: Reduction Li-pilocarpine-induced weight loss in protected CF1 albino mouse at 65 mg/kg, ip after 0.5 hrs; assay type: functional, organism-based; design: dose 65 mg/kg
[28] = tested on: Mus musculus; assay: Reduction Li-pilocarpine-induced weight loss in non-protected CF1 albino mouse at 65 mg/kg, ip after 0.5 hrs; assay type: functional, organism-based; design: dose 65 mg/kg

Structure (SMILES) | selectivity ratio [1] | ED50 [2] | Activity [4] | Activity [5] | Time [8] | Activity [9] | Activity [10] | Activity [13] | Time [14] | Activity [16] | TD50 at 4 h [19] | Activity [20] | Activity [21] | Activity [22] | also measured
CC(C)c1cccc(C(C)C)c1O [PROPOFOL] | 1.1 | 32.8 mg/kg | – | – | – | – | – | – | – | – | – | – | – | – | –
Cc1ccc(C(C)C)cc1O [CARVACROL] | 5.3 | 35.8 mg/kg | Non-toxic | inactive | 0.25 h | Non-toxic | Non-toxic | Non-toxic | 6 h | inactive | 191 mg/kg | Non-toxic | inactive | inactive | Activity [3]: inactive; Activity [6]: inactive; Activity [7]: inactive; Activity [11]: inactive; Activity [12]: inactive; Activity [15]: inactive; Activity [17]: inactive; inhibition in vivo at 100 mg/kg ([17]; route intraperitoneal): 20%; inhibition in vivo at 200 mg/kg [18]: 40%
NC(=O)N1c2ccccc2C=Cc2ccccc21 [CARBAMAZEPINE] | – | 47.9 mg/kg | – | – | – | – | – | – | – | – | – | – | – | – | –
CN1C(=O)OC(C)(C)C1=O [TRIMETHADIONE] | 3.8 | 218 mg/kg | – | – | – | – | – | – | – | – | – | – | – | – | –
CC(C)c1cccc(O)c1 | 2.4 | 53.8 mg/kg | Non-toxic | inactive | 0.25 h | Non-toxic | – | – | 4 h | inactive | 129 mg/kg | Non-toxic | inactive | – | Activity [23]: inactive; Activity [24]: inactive; Activity [6]: inactive; Activity [7]: inactive; Activity [25]: Active
Cc1ccc(C(C)C)c(O)c1 [THYMOL] | 3.4 | 35.8 mg/kg | Non-toxic | – | 0.25 h | Non-toxic | Non-toxic | Non-toxic | 0.25 h | – | 121 mg/kg | Non-toxic | – | inactive | Activity [3]: Active; Activity [11]: inactive; Activity [26]: inactive
CC(C)c1ccccc1O | 2.8 | 49.9 mg/kg | – | inactive | 0.25 h | Non-toxic | Non-toxic | Non-toxic | 4 h | inactive | 142 mg/kg | – | inactive | inactive | Activity [23]: inactive; inhibition [27]: inactive; inhibition [28]: inactive; Activity [15]: inactive
Cc1ccc(C(C)C)cc1 [P-CYMENE] | – | 51.3 mg/kg | – | – | 0.25 h | – | – | – | – | – | – | – | – | – | Activity [14]: ND(toxic)
